These results are taken from US9175003B2, “Substituted azoanthracene derivatives and intermediates for preparation thereof” (TransTech Pharma, LLC, priority 2009, dated 2015).

The target of the experiment is human GLP-1 receptor (Homo sapiens (Human), UniProt P43220). As to conditions: read-out: Mean EC50; cAMP, HTRF detection, 30 min at 37° C., HEK-293 cells expressing cloned human GLP-1 receptor. (In general: TR-FRET usually uses a lanthanide donor and a delayed reading to cut background.)

One may read the EC50 as the concentration giving half of the maximal effect.

human GLP-1 receptor, sequence (P43220 24-463): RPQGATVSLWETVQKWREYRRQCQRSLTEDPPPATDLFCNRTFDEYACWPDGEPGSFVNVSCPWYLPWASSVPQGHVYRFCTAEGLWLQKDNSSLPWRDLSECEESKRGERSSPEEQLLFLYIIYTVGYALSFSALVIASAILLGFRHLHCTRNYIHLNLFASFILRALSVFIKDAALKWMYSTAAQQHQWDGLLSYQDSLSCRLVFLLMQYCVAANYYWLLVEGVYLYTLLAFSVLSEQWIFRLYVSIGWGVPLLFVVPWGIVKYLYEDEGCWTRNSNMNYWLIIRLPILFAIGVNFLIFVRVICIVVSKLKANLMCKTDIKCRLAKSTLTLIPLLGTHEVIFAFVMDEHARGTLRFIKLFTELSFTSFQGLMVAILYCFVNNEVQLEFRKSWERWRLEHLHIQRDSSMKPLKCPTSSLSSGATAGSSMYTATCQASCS

Turning to `Cc1nccc(Oc2ccc(C[C@H](NC(=O)[C@@H]3Cc4cc5c(cc4CN3C(=O)NC(C)(C)C)O[C@@H](c3ccc(OCc4ccc(Cl)c(Cl)c4)cc3)CO5)C(=O)O)cc2)c1C` [Example 343, (S)-2-({(3S,8S)-7-tert-Butylcarbamoyl-3-[4-(3,4-dichloro-benzyloxy)-phenyl]-2,3,6,7,8,9-hexahydro-[1,4]dioxino[2,3-g]isoquinoline-8-carbonyl}-amino)-3-[4-(2,3-dimethyl-pyridin-4-yloxy)-phenyl]-propionic acid], the 50% effective concentration (EC50) came to 124 nM.
Regarding `Cc1nccc(Oc2ccc(C[C@H](NC(=O)[C@@H]3Cc4cc5c(cc4CN3C(=O)NC3CCCCC3)O[C@@H](c3ccc(OCc4ccc(Cl)c(Cl)c4)cc3)CO5)C(=O)O)cc2)c1C` [Example 344, (S)-2-({(3S,8S)-7-Cyclohexylcarbamoyl-3-[4-(3,4-dichloro-benzyloxy)-phenyl]-2,3,6,7,8,9-hexahydro-[1,4]dioxino[2,3-g]isoquinoline-8-carbonyl}-amino)-3-[4-(2,3-dimethyl-pyridin-4-yloxy)-phenyl]-propionic acid], the EC50 came to 271 nM.
The result for `Cc1cccc(NC(=O)N2Cc3cc4c(cc3C[C@H]2C(=O)N[C@@H](Cc2ccc(Oc3ccnc(C)c3C)cc2)C(=O)O)OC[C@H](c2ccc(OCc3ccc(Cl)c(Cl)c3)cc2)O4)c1` [Example 345, (S)-2-({(3S,8S)-3-[4-(3,4-Dichloro-benzyloxy)-phenyl]-7-m-tolylcarbamoyl-2,3,6,7,8,9-hexahydro-[1,4]dioxino[2,3-g]isoquinoline-8-carbonyl}-amino)-3-[4-(2,3-dimethyl-pyridin-4-yloxy)-phenyl]-propionic acid] reads 255 nM; that for `Cc1nccc(Oc2ccc(C[C@H](NC(=O)[C@@H]3Cc4cc5c(cc4CN3C(=O)NC3CCC3)O[C@@H](c3ccc(OCc4ccc(Cl)c(Cl)c4)cc3)CO5)C(=O)O)cc2)c1C` [Example 347, (S)-2-({(3S,8S)-7-Cyclobutylcarbamoyl-3-[4-(3,4-dichloro-benzyloxy)-phenyl]-2,3,6,7,8,9-hexahydro-[1,4]dioxino[2,3-g]isoquinoline-8-carbonyl}-amino)-3-[4-(2,3-dimethyl-pyridin-4-yloxy)-phenyl]-propionic acid], 315 nM.
In the case of `Cc1nccc(Oc2ccc(C[C@H](NC(=O)[C@@H]3Cc4cc5c(cc4CN3C(=O)NC(C)(C)c3ccccc3)O[C@@H](c3ccc(OCc4ccc(Cl)c(Cl)c4)cc3)CO5)C(=O)O)cc2)c1C` [Example 348, (S)-2-{[(3S,8S)-3-[4-(3,4-Dichloro-benzyloxy)-phenyl]-7-(1-methyl-1-phenyl-ethylcarbamoyl)-2,3,6,7,8,9-hexahydro-[1,4]dioxino[2,3-g]isoquinoline-8-carbonyl]-amino}-3-[4-(2,3-dimethyl-pyridin-4-yloxy)-phenyl]-propionic acid] it was 262 nM; in that of `CCC(C)(C)NC(=O)N1Cc2cc3c(cc2C[C@H]1C(=O)N[C@@H](Cc1ccc(Oc2ccnc(C)c2C)cc1)C(=O)O)OC[C@H](c1ccc(OCc2ccc(Cl)c(Cl)c2)cc1)O3` [Example 350, (S)-2-{[(3S,8S)-3-[4-(3,4-Dichloro-benzyloxy)-phenyl]-7-(1,1-dimethyl-propylcarbamoyl)-2,3,6,7,8,9-hexahydro-[1,4]dioxino[2,3-g]isoquinoline-8-carbonyl]-amino}-3-[4-(2,3-dimethyl-pyridin-4-yloxy)-phenyl]-propionic acid], 212 nM; in that of `Cc1nccc(Oc2ccc(C[C@H](NC(=O)[C@@H]3Cc4cc5c(cc4CN3C(=O)NC3(C)CCC3)O[C@@H](c3ccc(OCc4ccc(Cl)c(Cl)c4)cc3)CO5)C(=O)O)cc2)c1C` [Example 351, (S)-2-{[(3S,8S)-3-[4-(3,4-Dichloro-benzyloxy)-phenyl]-7-(1-methyl-cyclobutylcarbamoyl)-2,3,6,7,8,9-hexahydro-[1,4]dioxino[2,3-g]isoquinoline-8-carbonyl]-amino}-3-[4-(2,3-dimethyl-pyridin-4-yloxy)-phenyl]-propionic acid], 109 nM.
Consider `Cc1nccc(Oc2ccc(C[C@H](NC(=O)[C@@H]3Cc4cc5c(cc4CN3C(=O)NC3CCC(F)(F)CC3)O[C@@H](c3ccc(OCc4ccc(Cl)c(Cl)c4)cc3)CO5)C(=O)O)cc2)c1C` [Example 352, (S)-2-{[(3S,8S)-3-[4-(3,4-Dichloro-benzyloxy)-phenyl]-7-(4,4-difluoro-cyclohexylcarbamoyl)-2,3,6,7,8,9-hexahydro-[1,4]dioxino[2,3-g]isoquinoline-8-carbonyl]-amino}-3-[4-(2,3-dimethyl-pyridin-4-yloxy)-phenyl]-propionic acid], for which the concentration for a half-maximal effect (EC50) worked out at 338 nM.
As for `Cc1nc(C(=O)N2Cc3cc4c(cc3C[C@H]2C(=O)N[C@@H](Cc2ccc(-c3ccnc(C)c3C)cc2)C(=O)O)OC[C@H](c2ccc(OCc3c(Cl)cccc3Cl)cc2)O4)c(C)o1` [Example 355, (S)-2-{[(3S,8S)-3-[4-(2,6-Dichloro-benzyloxy)-phenyl]-7-(2,5-dimethyl-oxazole-4-carbonyl)-2,3,6,7,8,9-hexahydro-[1,4]dioxino[2,3-g]isoquinoline-8-carbonyl]-amino}-3-[4-(2,3-dimethyl-pyridin-4-yl)phenyl]-propionic acid], the concentration for a half-maximal effect (EC50) turned out to be 45 nM.
As to `Cc1nc(C(=O)N2Cc3cc4c(cc3C[C@H]2C(=O)N[C@@H](Cc2ccc(-c3ccnc(C)c3C)cc2)C(=O)O)OC[C@H](c2ccc(OCc3cc(F)ccc3F)cc2)O4)c(C)o1` [Example 356, (S)-2-{[(3S,8S)-3-[4-(2,5-Difluoro-benzyloxy)-phenyl]-7-(2,5-dimethyl-oxazole-4-carbonyl)-2,3,6,7,8,9-hexahydro-[1,4]dioxino[2,3-g]isoquinoline-8-carbonyl]-amino}-3-[4-(2,3-dimethyl-pyridin-4-yl)-phenyl]-propionic acid], the concentration giving a half-maximal response (EC50) was 57 nM.
`Cc1nc(C(=O)N2Cc3cc4c(cc3C[C@H]2C(=O)N[C@@H](Cc2ccc(-c3ccnc(C)c3C)cc2)C(=O)O)OC[C@H](c2ccc(OCc3cc(F)cc(F)c3)cc2)O4)c(C)o1` [Example 357, (S)-2-{[(3S,8S)-3-[4-(3,5-Difluoro-benzyloxy)-phenyl]-7-(2,5-dimethyl-oxazole-4-carbonyl)-2,3,6,7,8,9-hexahydro-[1,4]dioxino[2,3-g]isoquinoline-8-carbonyl]-amino}-3-[4-(2,3-dimethyl-pyridin-4-yl)-phenyl]propionic acid]: the EC50 turned out to be 19 nM.
Take `Cc1nc(C(=O)N2Cc3cc4c(cc3C[C@H]2C(=O)N[C@@H](Cc2ccc(-c3ccnc(C)c3C)cc2)C(=O)O)OC[C@H](c2ccc(OCc3cccc(Cl)c3F)cc2)O4)c(C)o1` [Example 359, (S)-2-{[(3S,8S)-3-[4-(3-Chloro-2-fluoro-benzyloxy)-phenyl]-7-(2,5-dimethyl-oxazole-4-carbonyl)-2,3,6,7,8,9-hexahydro-[1,4]dioxino[2,3-g]isoquinoline-8-carbonyl]-amino}-3-[4-(2,3-dimethyl-pyridin-4-yl)phenyl]-propionic acid]: the EC50 is 117 nM.
In the case of `Cc1nc(C(=O)N2Cc3cc4c(cc3C[C@H]2C(=O)N[C@@H](Cc2ccc(-c3ccnc(C)c3C)cc2)C(=O)O)OC[C@H](c2ccc(OCc3c(F)cccc3Cl)cc2)O4)c(C)o1` [Example 360, (S)-2-{[(3S,8S)-3-[4-(2-Chloro-6-fluoro-benzyloxy)-phenyl]-7-(2,5-dimethyl-oxazole-4-carbonyl)-2,3,6,7,8,9-hexahydro-[1,4]dioxino[2,3-g]isoquinoline-8-carbonyl]-amino}-3-[4-(2,3-dimethyl-pyridin-4-yl)phenyl]-propionic acid], the 50% effective concentration (EC50) worked out at 297 nM.
On to `Cc1nc(C(=O)N2Cc3cc4c(cc3C[C@H]2C(=O)N[C@@H](Cc2ccc(-c3ccnc(C)c3C)cc2)C(=O)O)OC[C@H](c2ccc(OCc3cccc(Cl)c3Cl)cc2)O4)c(C)o1` [Example 361, (S)-2-{[(3S,8S)-3-[4-(2,3-Dichloro-benzyloxy)-phenyl]-7-(2,5-dimethyl-oxazole-4-carbonyl)-2,3,6,7,8,9-hexahydro-[1,4]dioxino[2,3-g]isoquinoline-8-carbonyl]-amino}-3-[4-(2,3-dimethyl-pyridin-4-yl)phenyl]-propionic acid], for which the half-maximal effective concentration (EC50) amounted to 89 nM.
Take `Cc1nc(C(=O)N2Cc3cc4c(cc3C[C@H]2C(=O)N[C@@H](Cc2ccc(-c3ccnc(C)c3C)cc2)C(=O)O)OC[C@H](c2ccc(OCc3cc(Cl)ccc3Cl)cc2)O4)c(C)o1` [Example 362, (S)-2-{[(3S,8S)-3-[4-(2,5-Dichloro-benzyloxy)-phenyl]-7-(2,5-dimethyl-oxazole-4-carbonyl)-2,3,6,7,8,9-hexahydro-[1,4]dioxino[2,3-g]isoquinoline-8-carbonyl]-amino}-3-[4-(2,3-dimethyl-pyridin-4-yl)-phenyl]-propionic acid]: the EC50 was found to be 12 nM.
As to `Cc1nccc(-c2ccc(C[C@H](NC(=O)[C@@H]3Cc4cc5c(cc4CN3C(=O)N[C@H](C)c3ccccc3)O[C@@H](c3ccc(OCc4cc(F)cc(F)c4)cc3)CO5)C(=O)O)cc2)c1C` [Example 365, (S)-2-{[(3S,8S)-3-[4-(3,5-Difluoro-benzyloxy)-phenyl]-7-((R)-1-phenyl-ethylcarbamoyl)-2,3,6,7,8,9-hexahydro-[1,4]dioxino[2,3-g]isoquinoline-8-carbonyl]-amino}-3-[4-(2,3-dimethyl-pyridin-4-yl)-phenyl]-propionic acid], the half-maximal effective concentration (EC50) was 95 nM.
With `Cc1nccc(-c2ccc(C[C@H](NC(=O)[C@@H]3Cc4cc5c(cc4CN3C(=O)N[C@H](C)c3ccccc3)O[C@@H](c3ccc(OCc4cccc(Cl)c4Cl)cc3)CO5)C(=O)O)cc2)c1C` [Example 369, (S)-2-{[(3S,8S)-3-[4-(2,3-Dichloro-benzyloxy)-phenyl]-7-((R)-1-phenyl-ethylcarbamoyl)-2,3,6,7,8,9-hexahydro-[1,4]dioxino[2,3-g]isoquinoline-8-carbonyl]-amino}-3-[4-(2,3-dimethyl-pyridin-4-yl)-phenyl]-propionic acid], the 50% effective concentration (EC50) is 112 nM.
In the case of `Cc1nccc(-c2ccc(C[C@H](NC(=O)[C@@H]3Cc4cc5c(cc4CN3C(=O)N[C@H](C)c3ccccc3)O[C@@H](c3ccc(OCc4cc(Cl)ccc4Cl)cc3)CO5)C(=O)O)cc2)c1C` [Example 370, (S)-2-{[(3S,8S)-3-[4-(2,5-Dichloro-benzyloxy)-phenyl]-7-((R)-1-phenyl-ethylcarbamoyl)-2,3,6,7,8,9-hexahydro-[1,4]dioxino[2,3-g]isoquinoline-8-carbonyl]-amino}-3-[4-(2,3-dimethyl-pyridin-4-yl)-phenyl]-propionic acid] it was 62 nM.
